Data taken from patent publication US20260130395A1, “Water Dispersible Botanical Compositions” (Aquila Black Limited, priority 2021, published 2026).

Experiment: Stability of cannabinoid compounds and Vitamin E components in Beverage 1 (AB White) by LCMSMS
Assay type: physicochemical
Conditions: for Stability of Plant-Derived Cannabinoid Compounds in AB White, 8° C.: AB White stored at 8° C.; for Stability of Plant-Derived Cannabinoid Compounds in AB White, 21-25° C.: AB White stored at 21-25° C.

CCCCCc1cc(O)c2c(c1)OC1(C)CCC3C1C2C3(C)C (centres unmarked) [CBL, cannabicyclol]
Stability of Plant-Derived Cannabinoid Compounds in AB White, 8° C. (0 days): 0.550 µg/mL
Stability of Plant-Derived Cannabinoid Compounds in AB White, 8° C. (1 days): 0.541 µg/mL
Stability of Plant-Derived Cannabinoid Compounds in AB White, 8° C. (2 days): 0.542 µg/mL
Stability of Plant-Derived Cannabinoid Compounds in AB White, 8° C. (3 days): 0.553 µg/mL
Stability of Plant-Derived Cannabinoid Compounds in AB White, 8° C. (5 days): 0.552 µg/mL
Stability of Plant-Derived Cannabinoid Compounds in AB White, 8° C. (8 days): 0.537 µg/mL
Stability of Plant-Derived Cannabinoid Compounds in AB White, 8° C. (9 days): 0.535 µg/mL
Stability of Plant-Derived Cannabinoid Compounds in AB White, 8° C. (10 days): 0.544 µg/mL
Stability of Plant-Derived Cannabinoid Compounds in AB White, 8° C. (11 days): 0.544 µg/mL
Stability of Plant-Derived Cannabinoid Compounds in AB White, 8° C. (12 days): 0.553 µg/mL
Stability of Plant-Derived Cannabinoid Compounds in AB White, 8° C. (15 days): 0.534 µg/mL
Stability of Plant-Derived Cannabinoid Compounds in AB White, 8° C. (16 days): 0.546 µg/mL
Stability of Plant-Derived Cannabinoid Compounds in AB White, 8° C. (17 days): 0.540 µg/mL
Stability of Plant-Derived Cannabinoid Compounds in AB White, 8° C. (18 days): 0.536 µg/mL
Stability of Plant-Derived Cannabinoid Compounds in AB White, 8° C. (19 days): 0.537 µg/mL
Stability of Plant-Derived Cannabinoid Compounds in AB White, 8° C. (22 days): 0.555 µg/mL
Stability of Plant-Derived Cannabinoid Compounds in AB White, 8° C. (23 days): 0.545 µg/mL
Stability of Plant-Derived Cannabinoid Compounds in AB White, 8° C. (24 days): 0.548 µg/mL
Stability of Plant-Derived Cannabinoid Compounds in AB White, 8° C. (25 days): 0.540 µg/mL
Stability of Plant-Derived Cannabinoid Compounds in AB White, 8° C. (26 days): 0.534 µg/mL
Stability of Plant-Derived Cannabinoid Compounds in AB White, 8° C. (29 days): 0.547 µg/mL
Stability of Plant-Derived Cannabinoid Compounds in AB White, 8° C. (30 days): 0.544 µg/mL
Stability of Plant-Derived Cannabinoid Compounds in AB White, 8° C. (60 days): 0.543 µg/mL
Stability of Plant-Derived Cannabinoid Compounds in AB White, 8° C. (90 days): 0.527 µg/mL
Stability of Plant-Derived Cannabinoid Compounds in AB White, 8° C. (120 days): 0.534 µg/mL
Stability of Plant-Derived Cannabinoid Compounds in AB White, 8° C. (150 days): 0.540 µg/mL
Stability of Plant-Derived Cannabinoid Compounds in AB White, 8° C. (180 days): 0.542 µg/mL
Stability of Plant-Derived Cannabinoid Compounds in AB White, 8° C. (210 days): 0.534 µg/mL
Stability of Plant-Derived Cannabinoid Compounds in AB White, 8° C. (240 days): 0.535 µg/mL
Stability of Plant-Derived Cannabinoid Compounds in AB White, 8° C. (270 days): 0.539 µg/mL
Stability of Plant-Derived Cannabinoid Compounds in AB White, 8° C. (300 days): 0.526 µg/mL
Stability of Plant-Derived Cannabinoid Compounds in AB White, 8° C. (330 days): 0.543 µg/mL
Stability of Plant-Derived Cannabinoid Compounds in AB White, 8° C. (360 days): 0.533 µg/mL
Stability of Plant-Derived Cannabinoid Compounds in AB White, 8° C. (390 days): 0.535 µg/mL
Stability of Plant-Derived Cannabinoid Compounds in AB White, 8° C. (420 days): 0.526 µg/mL
Stability of Plant-Derived Cannabinoid Compounds in AB White, 8° C. (450 days): 0.532 µg/mL
Stability of Plant-Derived Cannabinoid Compounds in AB White, 8° C. (480 days): 0.521 µg/mL
Stability of Plant-Derived Cannabinoid Compounds in AB White, 8° C. (510 days): 0.514 µg/mL
Stability of Plant-Derived Cannabinoid Compounds in AB White, 8° C. (540 days): 0.514 µg/mL
Stability of Plant-Derived Cannabinoid Compounds in AB White, 8° C. (570 days): 0.503 µg/mL
Stability of Plant-Derived Cannabinoid Compounds in AB White, 21-25° C. (0 days): 0.550 µg/mL
Stability of Plant-Derived Cannabinoid Compounds in AB White, 21-25° C. (1 days): 0.539 µg/mL
Stability of Plant-Derived Cannabinoid Compounds in AB White, 21-25° C. (2 days): 0.540 µg/mL
Stability of Plant-Derived Cannabinoid Compounds in AB White, 21-25° C. (3 days): 0.543 µg/mL
Stability of Plant-Derived Cannabinoid Compounds in AB White, 21-25° C. (5 days): 0.530 µg/mL
Stability of Plant-Derived Cannabinoid Compounds in AB White, 21-25° C. (8 days): 0.542 µg/mL
Stability of Plant-Derived Cannabinoid Compounds in AB White, 21-25° C. (9 days): 0.535 µg/mL
Stability of Plant-Derived Cannabinoid Compounds in AB White, 21-25° C. (10 days): 0.546 µg/mL
Stability of Plant-Derived Cannabinoid Compounds in AB White, 21-25° C. (11 days): 0.552 µg/mL
Stability of Plant-Derived Cannabinoid Compounds in AB White, 21-25° C. (12 days): 0.529 µg/mL
Stability of Plant-Derived Cannabinoid Compounds in AB White, 21-25° C. (15 days): 0.548 µg/mL
Stability of Plant-Derived Cannabinoid Compounds in AB White, 21-25° C. (16 days): 0.537 µg/mL
Stability of Plant-Derived Cannabinoid Compounds in AB White, 21-25° C. (17 days): 0.554 µg/mL
Stability of Plant-Derived Cannabinoid Compounds in AB White, 21-25° C. (18 days): 0.554 µg/mL
Stability of Plant-Derived Cannabinoid Compounds in AB White, 21-25° C. (19 days): 0.552 µg/mL
Stability of Plant-Derived Cannabinoid Compounds in AB White, 21-25° C. (22 days): 0.547 µg/mL
Stability of Plant-Derived Cannabinoid Compounds in AB White, 21-25° C. (23 days): 0.530 µg/mL
Stability of Plant-Derived Cannabinoid Compounds in AB White, 21-25° C. (24 days): 0.546 µg/mL
Stability of Plant-Derived Cannabinoid Compounds in AB White, 21-25° C. (25 days): 0.532 µg/mL
Stability of Plant-Derived Cannabinoid Compounds in AB White, 21-25° C. (26 days): 0.549 µg/mL
Stability of Plant-Derived Cannabinoid Compounds in AB White, 21-25° C. (29 days): 0.552 µg/mL
Stability of Plant-Derived Cannabinoid Compounds in AB White, 21-25° C. (30 days): 0.543 µg/mL
Stability of Plant-Derived Cannabinoid Compounds in AB White, 21-25° C. (60 days): 0.544 µg/mL
Stability of Plant-Derived Cannabinoid Compounds in AB White, 21-25° C. (90 days): 0.541 µg/mL
Stability of Plant-Derived Cannabinoid Compounds in AB White, 21-25° C. (120 days): 0.516 µg/mL
Stability of Plant-Derived Cannabinoid Compounds in AB White, 21-25° C. (150 days): 0.517 µg/mL
Stability of Plant-Derived Cannabinoid Compounds in AB White, 21-25° C. (180 days): 0.527 µg/mL
Stability of Plant-Derived Cannabinoid Compounds in AB White, 21-25° C. (210 days): 0.514 µg/mL
Stability of Plant-Derived Cannabinoid Compounds in AB White, 21-25° C. (240 days): 0.515 µg/mL
Stability of Plant-Derived Cannabinoid Compounds in AB White, 21-25° C. (270 days): 0.535 µg/mL
Stability of Plant-Derived Cannabinoid Compounds in AB White, 21-25° C. (300 days): 0.532 µg/mL
Stability of Plant-Derived Cannabinoid Compounds in AB White, 21-25° C. (330 days): 0.526 µg/mL
Stability of Plant-Derived Cannabinoid Compounds in AB White, 21-25° C. (360 days): 0.526 µg/mL
Stability of Plant-Derived Cannabinoid Compounds in AB White, 21-25° C. (390 days): 0.518 µg/mL
Stability of Plant-Derived Cannabinoid Compounds in AB White, 21-25° C. (420 days): 0.523 µg/mL
Stability of Plant-Derived Cannabinoid Compounds in AB White, 21-25° C. (450 days): 0.521 µg/mL
Stability of Plant-Derived Cannabinoid Compounds in AB White, 21-25° C. (480 days): 0.510 µg/mL
Stability of Plant-Derived Cannabinoid Compounds in AB White, 21-25° C. (510 days): 0.503 µg/mL
Stability of Plant-Derived Cannabinoid Compounds in AB White, 21-25° C. (540 days): 0.510 µg/mL
Stability of Plant-Derived Cannabinoid Compounds in AB White, 21-25° C. (570 days): 0.505 µg/mL
